Measured values reported in patent publication US20220378676A1, “COMPOSITION FOR ENHANCING SKIN ELASTICITY OR IMPROVING SKIN WRINKLES” (AMOREPACIFIC CORPORATION, priority 2021, published 2022).

Legend:
IL-6 = IL-6 expression in particulate matter-treated fibroblasts (ELISA); type: cell-based; details: human-derived fibroblasts, PM2.5 50 ug/mL, 100 μM, 24 hours
Procedure: (§1) Human-derived fibroblasts (LONZA Inc.) were transfected with siRNA for IFT88 (siIFT88) or scrambled siRNA (SC), respectively, and then were treated with 50 ug/mL of particulate matter (PM2.5) and 100 μM of 2-isopropylmalic acid for 24 hours. Thereafter, the expression levels of IL-6 and TNF-α, which were inflammatory cytokines, were measured in culture conditions by ELISA assay, and the results were shown in FIG. 9.

c-Jun = c-Jun phosphorylation in particulate matter-treated fibroblasts (western blotting); type: cell-based; details: human-derived fibroblasts, PM2.5, 100 μM, 24 hours; effect similar to SP600125
Procedure: Human-derived fibroblasts (LONZA Inc.) were treated with particulate matter (PM2.5). Then, after treatment with 100 μM of 2-isopropylmalic acid for 24 hours, cell lysate was made, protein was quantified, and the same amount of protein was separated by electrophoresis, and c-Jun, p-c-Jun (phosphorylated c-Jun) was performed by western blotting.

MMP-1 [1] = assay: Inhibition of MMP-1 expression in an artificial skin model (immunocytochemistry, image analysis); type: cell-based; details: full-thickness human 3D-skin model, PM2.5 100 ug/mL, 50 uM, 100 uM, 48 hours
Procedure: The effect of 2-IPMA on the skin was evaluated using a full-thickness human three-dimensional (3-D)-skin model. The full-thickness human 3D-skin model was fabricated in the following way. An artificial dermal layer was formed by loading a mixture of collagen (Nutragen, Advanced Biomatrix Inc.) and fibroblasts (NDFn, ThermoFisher Inc.) in a volume of 400 ul in Transwell® (Corning Inc.). Thereafter, a fibroblast culture medium (M106, Gibco Inc.) was put on the artificial dermal layer and cultured for 7 days to stabilize the artificial dermal layer. Next, keratinocytes (HEKn, ThermoFisher Inc.) were seeded on the artificial dermal layer, and cultured in keratinocyte culture medium (EpiLife, Gibco Inc.) for 1 day, followed by epidermal layer production medium (CnT-3DPR, CellnTEC) for 1 day, and then cultured in the same epidermal layer production medium for 10 days in a state of exposure to air to form an artificial epidermal layer, thereby constructing a full-thickness human 3D-skin model. 100 ug/mL of particulate matter (PM2.5) and 2-isopropylmalic acid (50 uM, 100 uM) were treated in the full-thickness human three-dimensional skin model constructed in this way for 48 hours. Thereafter, hematoxylin-eosin (H&E) staining and MMP-1 immunocytochemistry were performed, and the results were shown in FIG. 10.

[2] = test system: RPE/Smo-GFP primary cilia model cells; assay: Assessment of primary ciliary activation (confocal microscopy); type: cell-based, human; details: 20 μM, 100 μM, 24 hours, vs control group
Procedure: In order to confirm the primary cilia activation effect of 2-isopropylmalic acid, RPE/Smo-GFP, primary cilia model cells, was prepared. Specifically, human telomerase-immortalized retinal pigmented epithelial (RPE) cells (ATCC Inc.) were transformed with Smo-GFP plasmid (Addgene Inc.) to prepare RPE/Smo-GFP. After treating RPE/Smo-GFP with 2-isopropylmalic acid (Sigma Aldrich Inc.) at different concentrations (20 μM, 100 μM) for 24 hours, the primary cilia production rate and primary cilia length were measured by confocal microscopy (LSM510; Carl Zeiss Microimaging Inc., Thornwood, N.Y.) and the results were shown in FIGS. 2 and 3. The production rate of primary cilia was expressed as the ratio of the number of cells having primary cilia to the total number of cells as a percentage, and the length of primary cilia was a measure of the actual length of all cilia observed under a microscope. As a positive control, SAG (SMO agonist, Calbiochem Inc.), which was a primary cilia production promoting substance, was used.

MMP-1 [3] = assay: MMP-1 expression in particulate matter-treated fibroblasts (western blotting); type: cell-based; details: human-derived fibroblasts, PM2.5, 100 μM, 24 hours
[4] = test system: RPE/Smo-GFP primary cilia model cells; assay: Assessment of activation of primary cilia inhibited by particulate matter (PM2.5); type: cell-based, human; details: PM2.5 50 ug/ml, 100 μM, 24 hours
Procedure: Particulate matter (PM2.5) was treated in RPE/Smo-GFP, which was the primary cilia model cells of Experimental Example 2. Specifically, particulate matter was directly collected in the air (37.34° N, 127.27° E, 167 m above sea level) using a Teflon filter (Teflon filter, Zefluor, Pall Life Science, Ann Arbor, Mich., USA). Then, this was treated at a concentration of 50 ug/ml in the cell culture medium. Thereafter, after treatment with 100 μM of 2-isopropylmalic acid for 24 hours, the fluorescence of Smo-GFP was visually observed using a fluorescence microscope, and then the production rate and length of primary cilia were measured and shown in FIGS. 4 and 5. The production rate of primary cilia was expressed as the ratio of the number of cells having primary cilia to the total number of cells as a percentage, and the length of primary cilia was a measure of the actual length of all cilia observed under a microscope. As a positive control, SAG (SMO agonist, Calbiochem Inc.), which was a primary cilia production promoting substance, was used.

TNF-α = TNF-α expression in particulate matter-treated fibroblasts (ELISA); type: cell-based; details: human-derived fibroblasts, PM2.5 50 ug/mL, 100 μM, 24 hours
Procedure: as §1

collagen = assay: Collagen expression in particulate matter-treated fibroblasts (western blotting); type: cell-based; details: human-derived fibroblasts, PM2.5, 100 μM, 24 hours

**Q.** What does the source list for `CC(C)C(O)(CC(=O)O)C(=O)O` (stereo not shown) [2-isopropylmalic acid]?
**A.** expression of IL-6 increased by particulate matter (IL-6): reduced; phosphorylation of c-Jun by particulate matter (c-Jun): suppressed; expression of MMP-1 increased by the particulate matter (MMP-1 [1]): decreased; length of primary cilia [2]: increased; proportion of cells with primary cilia (production rate of primary cilia) [2]: statistically significantly higher than that of the control group; MMP-1 expression (MMP-1 [3]): decreased; length of primary cilia [4]: getting longer; production of primary cilia suppressed by particulate matter [4]: restored; expression of TNF-α increased by particulate matter (TNF-α): reduced; collagen expression (collagen): increased
